Tested on: not listed separately
Experiment: DPPH free radical scavenging
Settings: mean ± SD (n = 3)
Description: The effect of target compounds and vitamin C to scavenge the DPPH free radical was evaluated with the method described by Villano et al.[43] with slight modifications.
Two millilitres of different concentrations of the sample solution was added to 2.0 ml of DPPH solution (0.04 mg/mL), shaken and allowed to react at room temperature for 30 min. The absorbance value was measured at 517 nm with an ultraviolet-visible spectrophotometer. The blank reference cuvette contained absolute ethanol. All measurements were performed in triplicate. IC50 values were calculated. The percentage of DPPH radical scavenging rate of the target compound is calculated as follows: DPPH free radical scavenging effect (%)=[A0−(A1−A2)]/A0×100% where A0 is the absorbance of 2.0 ml DPPH solution +2.0 ml absolute ethanol; A1 is the absorbance of 2.0 ml DPPH solution +2.0 ml 3-arylcoumarins solution or standard; A2 is the absorbance of 2.0 ml 3-arylcoumarins solution or standard +2.0 ml absolute ethanol.

Row | SMILES | IC50 [µM]
1 | COc1ccc(-c2cc3cccc(O)c3oc2=O)cc1OC [Compound 38, 8-Hydroxy-3-(3,4-dimethoxyphenyl)-coumarin] | 16.3 ± 0.44
2 | O=c1oc2cc(O)ccc2cc1-c1ccc(O)c(O)c1 [Compound 29, 7-Hydroxy-3-(3,4-dihydroxyphenyl)-coumarin] | 11.85 ± 0.04
3 | COc1ccc(-c2cc3c(O)cc(O)cc3oc2=O)cc1OC [Compound 42, 5,7-Dihydroxy-3-(3,4-dimethoxyphenyl)-coumarin] | 5.89 ± 0.06
4 | O=c1oc2c(O)c(O)ccc2cc1-c1ccc(O)cc1 [Compound 30, 7,8-Dihydroxy-3-(4-hydroxyphenyl)-coumarin] | 2.18 ± 0.04
5 | COc1ccc(-c2cc3ccc(O)c(O)c3oc2=O)cc1 [Compound 34, 7,8-Dihydroxy-3-(4-methoxyphenyl)-coumarin] | 3.66 ± 0.03
6 | O=c1oc2cc(O)ccc2cc1-c1ccccc1O [Compound 16, 7-Hydroxy-3-(2-hydroxyphenyl)-coumarin] | > 1000
7 | CCN(CC)c1ccc2cc(-c3ccc(O)cc3)c(=O)oc2c1 [Compound 41, 7-Diethylamino-3-(4-hydroxyphenyl)-coumarin] | > 1000
8 | Cc1ccc(C)c(-c2cc3ccc(O)cc3oc2=O)c1 [Compound 20, 7-Hydroxy-3-(2,5-dimethylphenyl)-coumarin] | > 1000
9 | O=c1oc2ccccc2cc1-c1ccc(F)cc1 [Compound 7, 3-(4-Fluorophenyl)-coumarin] | > 1000

Target: T1, α-Glucosidase (Saccharomyces cerevisiae, UniProt P53341)
T1 construct: purchased Sigma Aldrich G0660-750UN
Experiment: biochemical
Format: biochemical
Settings: not given
Description: α-Glucosidase (G0660-750UN, Sigma Aldrich) and 4-Nitrophenyl α-D-glucopyranoside (PNPG, Macklin) were dissolved in phosphate buffer (pH 6.8, 100 mM), and the test compounds were dissolved in DMSO solution. The experiment was divided into blank group, control group, sample blank group, and sample group. The reagents were loaded in 96-well plates at the dose of the table (Table 8). The solution was bathed in 37 °C water for 10 min, and then enzyme solution was added. After reaction at 37 °C for 20 min, 70 μL Na2CO3 solution ([…]) was added to stop the reaction. All experiments were run in triplicate. […] Since PNPG can produce glucose and p-Nitrophenol (PNP) under the action of α-glucosidase, PNP has the greatest absorption at 405 nm. The absorbance was determined by the microplate reader, and the inhibition rate of α-glucosidase and the IC50 value of each sample were calculated according to the formula. Inhibition rate %={[(AC−AB)−(AS−ASB)]/(AC−AB)}×100% where AC is the absorbance of control group; AB is the absorbance of blank group; AS is the absorbance of sample group; ASB is the absorbance of sample blank group.

T1 sequence (P53341 whole entry): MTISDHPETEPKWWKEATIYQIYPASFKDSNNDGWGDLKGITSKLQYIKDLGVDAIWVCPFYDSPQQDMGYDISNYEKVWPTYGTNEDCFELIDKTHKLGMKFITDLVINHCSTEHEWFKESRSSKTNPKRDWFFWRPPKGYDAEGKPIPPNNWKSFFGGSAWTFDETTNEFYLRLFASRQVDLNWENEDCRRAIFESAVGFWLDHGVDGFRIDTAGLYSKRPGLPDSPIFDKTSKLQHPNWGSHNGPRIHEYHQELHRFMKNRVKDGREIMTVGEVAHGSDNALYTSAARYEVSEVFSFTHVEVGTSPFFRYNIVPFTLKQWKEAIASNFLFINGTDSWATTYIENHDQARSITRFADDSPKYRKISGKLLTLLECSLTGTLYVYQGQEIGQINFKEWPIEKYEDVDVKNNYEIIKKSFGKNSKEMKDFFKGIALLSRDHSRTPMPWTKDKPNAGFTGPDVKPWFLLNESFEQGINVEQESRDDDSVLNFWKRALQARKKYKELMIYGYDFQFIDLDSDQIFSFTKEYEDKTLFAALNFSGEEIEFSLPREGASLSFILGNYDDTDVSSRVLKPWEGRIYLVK

Row | SMILES | IC50 [µM]
10 | COc1ccc(-c2cc3cccc(O)c3oc2=O)cc1OC [Compound 38, 8-Hydroxy-3-(3,4-dimethoxyphenyl)-coumarin] | 20.2 ± 0.44
11 | O=c1oc2cc(O)ccc2cc1-c1ccc(O)c(O)c1 [Compound 29, 7-Hydroxy-3-(3,4-dihydroxyphenyl)-coumarin] | 29.9 ± 5.15
12 | COc1ccc(-c2cc3c(O)cc(O)cc3oc2=O)cc1OC [Compound 42, 5,7-Dihydroxy-3-(3,4-dimethoxyphenyl)-coumarin] | 39.1 ± 0.76
13 | COc1ccc(-c2cc3ccc(O)c(O)c3oc2=O)cc1 [Compound 34, 7,8-Dihydroxy-3-(4-methoxyphenyl)-coumarin] | 18.8 ± 1.02
14 | O=c1oc2cc(O)ccc2cc1-c1ccccc1O [Compound 16, 7-Hydroxy-3-(2-hydroxyphenyl)-coumarin] | 10.2 ± 0.75
15 | CCN(CC)c1ccc2cc(-c3ccc(O)cc3)c(=O)oc2c1 [Compound 41, 7-Diethylamino-3-(4-hydroxyphenyl)-coumarin] | 13.4 ± 0.65
16 | Cc1ccc(C)c(-c2cc3ccc(O)cc3oc2=O)c1 [Compound 20, 7-Hydroxy-3-(2,5-dimethylphenyl)-coumarin] | > 1000
17 | O=c1oc2ccccc2cc1-c1ccc(F)cc1 [Compound 7, 3-(4-Fluorophenyl)-coumarin] | > 1000

Same assay, conditions: in vitro

Row | SMILES | α-glucosidase inhibitory activity (in words)
18 | O=c1oc2cc(O)ccc2cc1-c1ccccc1O [Compound 16, 7-Hydroxy-3-(2-hydroxyphenyl)-coumarin] | moderate to excellent inhibitory activity

Same assay, conditions: mean ± SD (n = 3); read-out: α-Glucosidase inhibitory activity IC50 Value

Row | IC50 [µM] | SMILES
19 | 19 ± 1.11 | O=c1oc2c(O)c(O)ccc2cc1-c1ccc(O)cc1 [Compound 30, 7,8-Dihydroxy-3-(4-hydroxyphenyl)-coumarin]

Tested on: not listed separately
Experiment: hydroxyl radical scavenging
Settings: mean ± SD (n = 3), read-out: OH IC50 Value
Description: The ability of the target compounds and vitamin C to scavenge the hydroxyl radical was evaluated with method described by Ismaili et al.[29] with slight modifications. In test tube, 1.0 ml H2O2 solution (0.03%), 1.0 ml FeSO4 solution (2 mmol.L^−1), 1.0 ml salicylic acid solution (10 mmol.L^−1) and 1.0 ml of 3-arylcoumarins and standard water solution with different concentration (0.4–2.0 mg/mL) were mixed. Finally, 1.0 ml H2O2 solution (0.03%) was added to this mixture to start the reaction. Solutions were kept at 37 °C. After 30 min, the absorbance was measured at 510 nm against the reagent blank, where the distilled water was substituted for the H2O2 solution. The percentage of OH scavenging by target compounds and vitamin C was calculated the following equation: OH scavenging effect (%)=[A0−(A1−A2)]/A0×100% where A0 is the absorbance of 1.0 ml distilled water +1.0 ml H2O2 + 1.0 ml FeSO4 + 1.0 ml salicylic acid +1.0 ml H2O2; A1 is the absorbance of 1.0 ml 3-arylcoumarins or standard +1.0 ml H2O2 + 1.0 ml FeSO4 + 1.0 ml salicylic acid +1.0 ml H2O2; A2 is the absorbance of 1.0 ml 3-arylcoumarins or standard +1.0 ml H2O2 + 1.0 ml FeSO4 + 1.0 ml absolute absolute ethanol +1.0 ml H2O2.

Row | SMILES | IC50 [µM]
20 | COc1ccc(-c2cc3cccc(O)c3oc2=O)cc1OC [Compound 38, 8-Hydroxy-3-(3,4-dimethoxyphenyl)-coumarin] | > 1000
21 | O=c1oc2cc(O)ccc2cc1-c1ccc(O)c(O)c1 [Compound 29, 7-Hydroxy-3-(3,4-dihydroxyphenyl)-coumarin] | 982 ± 30
22 | COc1ccc(-c2cc3c(O)cc(O)cc3oc2=O)cc1OC [Compound 42, 5,7-Dihydroxy-3-(3,4-dimethoxyphenyl)-coumarin] | > 1000
23 | O=c1oc2c(O)c(O)ccc2cc1-c1ccc(O)cc1 [Compound 30, 7,8-Dihydroxy-3-(4-hydroxyphenyl)-coumarin] | 697 ± 19.6
24 | COc1ccc(-c2cc3ccc(O)c(O)c3oc2=O)cc1 [Compound 34, 7,8-Dihydroxy-3-(4-methoxyphenyl)-coumarin] | > 1000
25 | O=c1oc2cc(O)ccc2cc1-c1ccccc1O [Compound 16, 7-Hydroxy-3-(2-hydroxyphenyl)-coumarin] | > 1000
26 | CCN(CC)c1ccc2cc(-c3ccc(O)cc3)c(=O)oc2c1 [Compound 41, 7-Diethylamino-3-(4-hydroxyphenyl)-coumarin] | > 1000
27 | Cc1ccc(C)c(-c2cc3ccc(O)cc3oc2=O)c1 [Compound 20, 7-Hydroxy-3-(2,5-dimethylphenyl)-coumarin] | > 1000
28 | O=c1oc2ccccc2cc1-c1ccc(F)cc1 [Compound 7, 3-(4-Fluorophenyl)-coumarin] | > 1000

Tested on: AGEs formation
Experiment: In vitro inhibitory activity of AGEs formation (bovine serum albumin/glucose)
Format: biochemical
Settings: mean ± SD (n = 3)
Description: To prepare the AGEs reaction solution, 10 mg/mL of bovine serum albumin in 50 mM PBS (pH 7.4) was added to 0.2 M glucose, and 0.02% sodium azide was added to prevent bacterial growth. The reaction mixture (3.0 ml) was then mixed with various concentrations (0.5–1000 μg/mL) of the target compounds (1.0 ml) dissolved in DMSO. After incubating at 37 °C for 14 d, the fluorescence intensity of AGE was determined by a fluorospectrophotometer (PE, USA) with excitation and emission wavelengths at 350 nm and 420 nm, respectively. All experiments were run in triplicate. Aminoguanidine hydrochloride was used as a reference compound. The inhibition rate of AGEs formation and the IC50 value of each sample were calculated according to the formula. Inhibition rate %={[(AC−AB)−(AS−ASB)]/(AC−AB)}×100% where AC is the absorbance of control group(1.0 ml glucose +1.0 ml bovine serum albumin +1.0 ml sodium azide +1.0 ml DMSO); AB is the absorbance of blank group(1.0 ml PBS +1.0 ml bovine serum albumin +1.0 ml sodium azide +1.0 ml DMSO); AS is the absorbance of sample group (1.0 ml glucose +1.0 ml bovine serum albumin +1.0 ml sodium azide +1.0 ml target compound solution or Aminoguanidine hydrochloride solution); ASB is the absorbance of sample blank group (1.0 ml PBS +1.0 ml bovine serum albumin +1.0 ml sodium azide +1.0 ml target compound solution or Aminoguanidine hydrochloride solution).

Row | SMILES | IC50 [µM]
29 | COc1ccc(-c2cc3cccc(O)c3oc2=O)cc1OC [Compound 38, 8-Hydroxy-3-(3,4-dimethoxyphenyl)-coumarin] | 22.3 ± 1.34
30 | O=c1oc2cc(O)ccc2cc1-c1ccc(O)c(O)c1 [Compound 29, 7-Hydroxy-3-(3,4-dihydroxyphenyl)-coumarin] | 7.48 ± 0.59
31 | COc1ccc(-c2cc3c(O)cc(O)cc3oc2=O)cc1OC [Compound 42, 5,7-Dihydroxy-3-(3,4-dimethoxyphenyl)-coumarin] | 18.3 ± 0.38
32 | O=c1oc2c(O)c(O)ccc2cc1-c1ccc(O)cc1 [Compound 30, 7,8-Dihydroxy-3-(4-hydroxyphenyl)-coumarin] | > 1000
33 | COc1ccc(-c2cc3ccc(O)c(O)c3oc2=O)cc1 [Compound 34, 7,8-Dihydroxy-3-(4-methoxyphenyl)-coumarin] | > 1000
34 | O=c1oc2cc(O)ccc2cc1-c1ccccc1O [Compound 16, 7-Hydroxy-3-(2-hydroxyphenyl)-coumarin] | 20.47 ± 0.2
35 | CCN(CC)c1ccc2cc(-c3ccc(O)cc3)c(=O)oc2c1 [Compound 41, 7-Diethylamino-3-(4-hydroxyphenyl)-coumarin] | > 1000
36 | Cc1ccc(C)c(-c2cc3ccc(O)cc3oc2=O)c1 [Compound 20, 7-Hydroxy-3-(2,5-dimethylphenyl)-coumarin] | > 1000
37 | O=c1oc2ccccc2cc1-c1ccc(F)cc1 [Compound 7, 3-(4-Fluorophenyl)-coumarin] | > 1000

Tested on: not given
Experiment: not given
Settings: not given

Row | SMILES | melting point [°C]
38 | COc1ccc(-c2cc3cccc(O)c3oc2=O)cc1OC [Compound 38, 8-Hydroxy-3-(3,4-dimethoxyphenyl)-coumarin] | 162.8 to 163.8
39 | O=c1oc2cc(O)ccc2cc1-c1ccc(O)c(O)c1 [Compound 29, 7-Hydroxy-3-(3,4-dihydroxyphenyl)-coumarin] | 306 to 307.8
40 | COc1ccc(-c2cc3c(O)cc(O)cc3oc2=O)cc1OC [Compound 42, 5,7-Dihydroxy-3-(3,4-dimethoxyphenyl)-coumarin] | 322 to 324.1
41 | O=c1oc2c(O)c(O)ccc2cc1-c1ccc(O)cc1 [Compound 30, 7,8-Dihydroxy-3-(4-hydroxyphenyl)-coumarin] | 287.5 to 288.9
42 | COc1ccc(-c2cc3ccc(O)c(O)c3oc2=O)cc1 [Compound 34, 7,8-Dihydroxy-3-(4-methoxyphenyl)-coumarin] | 234.4 to 235.4
43 | O=c1oc2cc(O)ccc2cc1-c1ccccc1O [Compound 16, 7-Hydroxy-3-(2-hydroxyphenyl)-coumarin] | 200.3 to 202.3
44 | CCN(CC)c1ccc2cc(-c3ccc(O)cc3)c(=O)oc2c1 [Compound 41, 7-Diethylamino-3-(4-hydroxyphenyl)-coumarin] | 190.2 to 191.8
45 | Cc1ccc(C)c(-c2cc3ccc(O)cc3oc2=O)c1 [Compound 20, 7-Hydroxy-3-(2,5-dimethylphenyl)-coumarin] | 189.1 to 190.6
46 | O=c1oc2ccccc2cc1-c1ccc(F)cc1 [Compound 7, 3-(4-Fluorophenyl)-coumarin] | 196.7 to 197.7
